Data: patent US12568972B2, “Pyridazinol compounds and derivatives, preparation methods, herbicidal compositions and applications thereof” (Qingdao Kingagroot Chemical Compound Co., Ltd., priority 2018, dated 2026)

Tests used:
Assay in all cases: Post-emergence test, weed control effect
Type in all cases: in vivo
Conditions in all cases: Dose 3000 g/ha, after 3 weeks
Rorippa indica = tested on: Rorippa indica
Outline: (§1)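 Greenhouse pots, soil-sown, 0.5-2 cm cover; foliar spray at 2-3 leaf stage (2-3 wk post-sowing); cpd in acetone + Tween-80, water-diluted, + 80% veg. oil methyl ester synergist 1500 g/ha; 3 wk culture; fresh-wt inhibition graded 0-10.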

Chenopodiaceae = tested on: Chenopodiaceae
Outline: as §1

Amaranthus retroflexus = tested on: Amaranthus retroflexus
Outline: as §1

Veronica polita = tested on: Veronica polita
Outline: as §1

COc1ccc(-c2nnc(C(F)(F)F)cc2O)cc1[N+](=O)[O-] [Compound 768]
10: weed control effect (activity level), Rorippa indica (Rorippa indica) | weed control effect (activity level), Chenopodiaceae (Chenopodiaceae) | weed control effect (activity level), Amaranthus retroflexus (Amaranthus retroflexus) | weed control effect (activity level), Veronica polita (Veronica polita)

Oc1cc(C(F)(F)F)nnc1-c1ccc(C(F)(F)F)cc1Cl [Compound 769]
10: weed control effect (activity level), Rorippa indica (Rorippa indica) | weed control effect (activity level), Chenopodiaceae (Chenopodiaceae) | weed control effect (activity level), Amaranthus retroflexus (Amaranthus retroflexus) | weed control effect (activity level), Veronica polita (Veronica polita)

Oc1cc(C(F)(F)F)nnc1-c1cncc(Cl)c1 [Compound 770]
10: weed control effect (activity level), Rorippa indica (Rorippa indica) | weed control effect (activity level), Chenopodiaceae (Chenopodiaceae) | weed control effect (activity level), Amaranthus retroflexus (Amaranthus retroflexus) | weed control effect (activity level), Veronica polita (Veronica polita)

Oc1cc(C(F)(F)F)nnc1-c1ccc2c(c1)OCO2 [Compound 771]
10: weed control effect (activity level), Rorippa indica (Rorippa indica) | weed control effect (activity level), Chenopodiaceae (Chenopodiaceae) | weed control effect (activity level), Amaranthus retroflexus (Amaranthus retroflexus) | weed control effect (activity level), Veronica polita (Veronica polita)

Oc1cc(C(F)(F)F)nnc1-c1ccccc1Br [Compound 772]
10: weed control effect (activity level), Rorippa indica (Rorippa indica) | weed control effect (activity level), Chenopodiaceae (Chenopodiaceae) | weed control effect (activity level), Amaranthus retroflexus (Amaranthus retroflexus) | weed control effect (activity level), Veronica polita (Veronica polita)

Cn1nccc1-c1nnc(C(F)(F)F)cc1O [Compound 774]
10: weed control effect (activity level), Rorippa indica (Rorippa indica) | weed control effect (activity level), Chenopodiaceae (Chenopodiaceae) | weed control effect (activity level), Amaranthus retroflexus (Amaranthus retroflexus) | weed control effect (activity level), Veronica polita (Veronica polita)

Cn1nc(F)cc1-c1nnc(C(F)(F)F)cc1O [Compound 775]
10: weed control effect (activity level), Rorippa indica (Rorippa indica) | weed control effect (activity level), Chenopodiaceae (Chenopodiaceae) | weed control effect (activity level), Amaranthus retroflexus (Amaranthus retroflexus) | weed control effect (activity level), Veronica polita (Veronica polita)

Cn1nc(Cl)cc1-c1nnc(C(F)(F)F)cc1O [Compound 776]
10: weed control effect (activity level), Rorippa indica (Rorippa indica) | weed control effect (activity level), Chenopodiaceae (Chenopodiaceae) | weed control effect (activity level), Amaranthus retroflexus (Amaranthus retroflexus) | weed control effect (activity level), Veronica polita (Veronica polita)

Cn1nc(Br)cc1-c1nnc(C(F)(F)F)cc1O [Compound 777]
10: weed control effect (activity level), Rorippa indica (Rorippa indica) | weed control effect (activity level), Chenopodiaceae (Chenopodiaceae) | weed control effect (activity level), Amaranthus retroflexus (Amaranthus retroflexus) | weed control effect (activity level), Veronica polita (Veronica polita)

Cn1nc(I)cc1-c1nnc(C(F)(F)F)cc1O [Compound 778]
10: weed control effect (activity level), Rorippa indica (Rorippa indica) | weed control effect (activity level), Chenopodiaceae (Chenopodiaceae) | weed control effect (activity level), Amaranthus retroflexus (Amaranthus retroflexus) | weed control effect (activity level), Veronica polita (Veronica polita)

CCc1cc(-c2nnc(C(F)(F)F)cc2O)n(C)n1 [Compound 780]
10: weed control effect (activity level), Rorippa indica (Rorippa indica) | weed control effect (activity level), Chenopodiaceae (Chenopodiaceae) | weed control effect (activity level), Amaranthus retroflexus (Amaranthus retroflexus) | weed control effect (activity level), Veronica polita (Veronica polita)

Cn1nc(C2CC2)cc1-c1nnc(C(F)(F)F)cc1O [Compound 781]
10: weed control effect (activity level), Rorippa indica (Rorippa indica) | weed control effect (activity level), Chenopodiaceae (Chenopodiaceae) | weed control effect (activity level), Amaranthus retroflexus (Amaranthus retroflexus) | weed control effect (activity level), Veronica polita (Veronica polita)

COc1cc(-c2nnc(C(F)(F)F)cc2O)n(C)n1 [Compound 782]
10: weed control effect (activity level), Rorippa indica (Rorippa indica) | weed control effect (activity level), Chenopodiaceae (Chenopodiaceae) | weed control effect (activity level), Amaranthus retroflexus (Amaranthus retroflexus) | weed control effect (activity level), Veronica polita (Veronica polita)

CCOc1cc(-c2nnc(C(F)(F)F)cc2O)n(C)n1 [Compound 783]
10: weed control effect (activity level), Rorippa indica (Rorippa indica) | weed control effect (activity level), Chenopodiaceae (Chenopodiaceae) | weed control effect (activity level), Amaranthus retroflexus (Amaranthus retroflexus) | weed control effect (activity level), Veronica polita (Veronica polita)

Cn1nc(OCc2ccccc2)cc1-c1nnc(C(F)(F)F)cc1O [Compound 784]
10: weed control effect (activity level), Rorippa indica (Rorippa indica) | weed control effect (activity level), Chenopodiaceae (Chenopodiaceae) | weed control effect (activity level), Amaranthus retroflexus (Amaranthus retroflexus) | weed control effect (activity level), Veronica polita (Veronica polita)

CN(C)c1cc(-c2nnc(C(F)(F)F)cc2O)n(C)n1 [Compound 787]
10: weed control effect (activity level), Rorippa indica (Rorippa indica) | weed control effect (activity level), Chenopodiaceae (Chenopodiaceae) | weed control effect (activity level), Amaranthus retroflexus (Amaranthus retroflexus) | weed control effect (activity level), Veronica polita (Veronica polita)

Cn1nc(C#N)cc1-c1nnc(C(F)(F)F)cc1O [Compound 791]
10: weed control effect (activity level), Rorippa indica (Rorippa indica) | weed control effect (activity level), Chenopodiaceae (Chenopodiaceae) | weed control effect (activity level), Amaranthus retroflexus (Amaranthus retroflexus) | weed control effect (activity level), Veronica polita (Veronica polita)

Cn1nc(C(F)F)cc1-c1nnc(C(F)(F)F)cc1O [Compound 794]
10: weed control effect (activity level), Rorippa indica (Rorippa indica) | weed control effect (activity level), Chenopodiaceae (Chenopodiaceae) | weed control effect (activity level), Amaranthus retroflexus (Amaranthus retroflexus) | weed control effect (activity level), Veronica polita (Veronica polita)

Cc1nn(C)c(-c2nnc(C(F)(F)F)cc2O)c1F [Compound 803]
10: weed control effect (activity level), Rorippa indica (Rorippa indica) | weed control effect (activity level), Chenopodiaceae (Chenopodiaceae) | weed control effect (activity level), Amaranthus retroflexus (Amaranthus retroflexus) | weed control effect (activity level), Veronica polita (Veronica polita)
